One data set concerns the target T1, Rat CBG-WT (Rattus norvegicus, UniProt P31211).
T1 construct: residues 5 to 374 of rat CBG (P31211); GST (N, cleaved yes); made in house; host or cells: E. coli BL21 Star (DE3)
T1 sequence (P31211 27-396): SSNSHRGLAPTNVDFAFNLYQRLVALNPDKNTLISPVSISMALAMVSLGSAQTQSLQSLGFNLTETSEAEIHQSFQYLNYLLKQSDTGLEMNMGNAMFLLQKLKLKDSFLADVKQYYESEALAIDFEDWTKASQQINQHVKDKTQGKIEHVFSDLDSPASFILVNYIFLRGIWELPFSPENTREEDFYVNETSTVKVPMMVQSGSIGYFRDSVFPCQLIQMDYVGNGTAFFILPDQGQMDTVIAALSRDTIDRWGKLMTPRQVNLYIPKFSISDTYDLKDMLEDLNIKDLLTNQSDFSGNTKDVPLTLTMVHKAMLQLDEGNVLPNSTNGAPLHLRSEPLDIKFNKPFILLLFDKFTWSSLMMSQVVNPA
Nature of the data set: Isothermal titration calorimetry, steroid titrated to rat CBG-WT. The conditions noted are these: ITC, 25°C. It counts as binding. The method, then: The coding sequences of residues 11 to 383 of human CBG (Swiss-Prot entry P08185) and residues 5 to 374 of rat CBG (P31211) were cloned into a pGEX-2T vector (GE Healthcare, Uppsala), yielding N-terminal glutathione-S-transferase (GST) fusion proteins. Mutations were introduced using a two-stage PCR procedure based on the QuikChange (Stratagene, Santa Clara) site-directed mutagenesis protocol. All experiments with human CBG were conducted with a mutant in which surface residue Lys126 was replaced by alanine in order to facilitate crystallization. Wild-type rat CBG (rat CBG-WT) and rat CBG mutants CBG-RCL1, CBG-RCL2 and CBG-RCL3 were produced to probe the function of the RCL residues in rat CBG. All gene constructs were confirmed by DNA sequencing prior to protein production.
The GST-tagged human and rat CBG variants were produced in E. coli BL21 Star™ (DE3) cells (Invitrogen, Carlsbad) using the ZYM-5052 auto-inducing medium. For each variant, 10 L of ZYM-5052 medium containing 100 µg/mL ampicillin were inoculated with an overnight culture of a single clone. The flasks were incubated at 37°C until the optical density at 600 nm reached 0.3. The temperature was then lowered to 20°C, and the cells were allowed to grow for an additional 20 h. The pellet was resuspended in PBS buffer (pH 7.4) containing 5 mM EDTA after cell harvesting (4 mL of buffer per gram of pellet).
The protein samples were dialyzed against ITC buffer (20 mM potassium phosphate, 50 mM NaCl, pH 7.4) and titrated with steroids in a VP-ITC microcalorimeter (Microcal, Piscataway). All solutions were filtered (0.2 µm filter pore size) and degassed for 30 min prior to the titration experiments. The sample cell was filled with protein solution containing 15 µM rat CBG or 20 µM human CBG and titrated with steroid solutions containing 150 µM and 200 µM ligand, respectively. The titrations consisted of an initial injection of 2 µL followed by 25 consecutive injections of 10 µL ligand solution at 25°C. A spacing of 240 sec between the injections was used to allow a return to the baseline. Data points from the initial injection, which are generally affected by diffusion during the initial equilibration period after experiment setup, were discarded prior to data analysis. […] The binding curve was generated by plotting the heats of injections against the ratio of ligand to protein in the cell. Integrated heat data were analyzed using nonlinear regression fit with a one-site-binding model in the Origin-7™ software provided with the VP-ITC. Changes in the free energy and entropy can be calculated using the equation: ΔG° = −RTlnK = ΔH°−TΔS°. In this equation ΔG° is the change in Gibbs free energy, R the universal gas constant, T the temperature, and K the association constant. The change in enthalpy is denoted as ΔH°, and ΔS° is the change in entropy under standard conditions. The data shown in Table 2 were obtained from single titrations of each complex.
For orientation: Isothermal titration calorimetry measures the heat released or taken up as one component is titrated into another.

Data set [1] is described as follows: Thermal denaturation monitored by CD spectroscopy. The format is physicochemical. To be noted: for thermal unfolding temperature / thermal stability: CD at 222 or 220 nm, 1°C/min, 10 mM potassium phosphate pH 7.4; for change of thermal stability upon RCL cleavage: elastase-cleaved vs uncleaved, CD-monitored. The procedure:
Heat-induced unfolding transitions were recorded at protein concentrations between 0.5 and 0.7 µM in 10 mM potassium phosphate (pH 7.4). The samples were heated at a rate of 1°C/min in a 1 cm cell and the ellipticity was monitored at 222 or 220 nm. The sensitivity was set to 50 mdeg with a bandwidth of 1 nm and 8 sec response time.

From PMC3530532, “Corticosteroid-Binding Globulin: Structure-Function Implications from Species Differences” (PLoS ONE, 2012) come the findings set out here.

Usually Kd stands for the constant that tells how readily two partners part at equilibrium.

In the case of `C[C@]12C[C@H](O)[C@H]3[C@@H](CCC4=CC(=O)CC[C@@]43C)[C@@H]1CC[C@@H]2C(=O)CO` [Corticosterone], on Rat CBG-WT (rat CBG-WT), the “TΔS°” value was -60.9 kJ/mol, the “ΔG°” value was -42.7 kJ/mol and the “ΔH°” value is -103.6 kJ/mol. This molecule also had a Kd at Rat CBG-WT (single titration, uncleaved rat CBG-WT) of 37 ± 2 nM.
“cleaved human alpha-1-antitrypsin: human alpha-1-antitrypsin after cleavage of the RCL”: in data set [1], the “thermal unfolding temperature / thermal stability” value is 90 °C.
Same read-out and setting: for “uncleaved human alpha-1-antitrypsin: human alpha-1-antitrypsin, archetypical member of the SERPIN family, used to validate the setup” the value was “about 60 °C”.

B1: CBG-RCL2: rat CBG variant CBG-RCL1 plus mutations P329T and N333T (protein, UniProt P31211 23-396, looked up, variant A335V P336T P329T N333T)
Corticosteroid-binding …: STNESSNSHRGLAPTNVDFAFNLYQRLVALNPDKNTLISPVSISMALAMVSLGSAQTQSLQSLGFNLTETSEAEIHQSFQYLNYLLKQSDTGLEMNMGNAMFLLQKLKLKDSFLADVKQYYESEALAIDFEDWTKASQQINQHVKDKTQGKIEHVFSDLDSPASFILVNYIFLRGIWELPFSPENTREEDFYVNETSTVKVPMMVQSGSIGYFRDSVFPCQLIQMDYVGNGTAFFILPDQGQMDTVIAALSRDTIDRWGKLMTPRQVNLYIPKFSISDTYDLKDMLEDLNIKDLLTNQSDFSGNTKDVPLTLTMVHKAMLQLDEGNVLTNSTTGVTLHLRSEPLDIKFNKPFILLLFDKFTWSSLMMSQVVNPA
For the molecule B1, in data set [1], the “change of thermal stability upon RCL cleavage” value is “neither of these humanized rat CBG variants displayed an increased thermal stability”.

B2: CBG-RCL3: rat CBG variant CBG-RCL2 plus R174K, D323N, G325E and N326G (protein, UniProt P31211 23-396, looked up, variant A335V P336T P329T N333T R174K D323N G325E N326G)
Corticosteroid-binding …: STNESSNSHRGLAPTNVDFAFNLYQRLVALNPDKNTLISPVSISMALAMVSLGSAQTQSLQSLGFNLTETSEAEIHQSFQYLNYLLKQSDTGLEMNMGNAMFLLQKLKLKDSFLADVKQYYESEALAIDFEDWTKASQQINQHVKDKTQGKIEHVFSDLDSPASFILVNYIFLKGIWELPFSPENTREEDFYVNETSTVKVPMMVQSGSIGYFRDSVFPCQLIQMDYVGNGTAFFILPDQGQMDTVIAALSRDTIDRWGKLMTPRQVNLYIPKFSISDTYDLKDMLEDLNIKDLLTNQSDFSGNTKDVPLTLTMVHKAMLQLNEEGVLTNSTTGVTLHLRSEPLDIKFNKPFILLLFDKFTWSSLMMSQVVNPA
Consider B2, for which the “change of thermal stability upon RCL cleavage” value in data set [1] is reported as “neither of these humanized rat CBG variants displayed an increased thermal stability”.
